Reference: ChEMBL document CHEMBL1201862, “PubChem BioAssay data set” (2004)
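Compound exposure: 48 hours, 5 concentrations, 96-well plates. GI50: concentration for 50% inhibition of growth.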 Active and inactive are the calls of the source. No stated cut-off is given here; in the data, active = GI50 up to about 1.1 µM and inactive = higher.

Experiments:
Assay in all cases: NCI-60 cell line screen, 48 h
T47D = tested on: T47D
COLO 205 = tested on: COLO 205
MDA-MB-435 = tested on: MDA-MB-435
DU-145 = tested on: DU-145
MDA-MB-231 = tested on: MDA-MB-231
SK-MEL-28 = tested on: SK-MEL-28
Hs-578T = tested on: Hs-578T
HCT-15 = tested on: HCT-15
NCI-H226 = tested on: NCI-H226
HCC 2998 = tested on: HCC 2998
SF-539 = tested on: SF-539
786-0 = tested on: 786-0
Malme-3M = tested on: Malme-3M
CCRF-CEM = tested on: CCRF-CEM
BT-549 = tested on: BT-549
OVCAR-3 = tested on: OVCAR-3
OVCAR-5 = tested on: OVCAR-5
NCI/ADR-RES = tested on: NCI/ADR-RES
LOX IMVI = tested on: LOX IMVI
U-251 = tested on: U-251
UO-31 = tested on: UO-31
A549 = tested on: A549
SF-268 = tested on: SF-268
NCI-H23 = tested on: NCI-H23
HL-60 = tested on: HL-60
SK-MEL-2 = tested on: SK-MEL-2
HOP-62 = tested on: HOP-62
SK-MEL-5 = tested on: SK-MEL-5
SF-295 = tested on: SF-295
UACC-257 = tested on: UACC-257
A498 = tested on: A498
M14 = tested on: M14
SW-620 = tested on: SW-620
OVCAR-4 = tested on: OVCAR-4
EKVX = tested on: EKVX
OVCAR-8 = tested on: OVCAR-8
NCI-H522 = tested on: NCI-H522
SK-OV-3 = tested on: SK-OV-3
ACHN = tested on: ACHN
MCF7 = tested on: MCF7
SNB-19 = tested on: SNB-19
SR = tested on: SR
MDA-N = tested on: MDA-N
NCI-H460 = tested on: NCI-H460
RXF 393 = tested on: RXF 393
IGROV-1 = tested on: IGROV-1
RPMI-8226 = tested on: RPMI-8226
HT-29 = tested on: HT-29
KM12 = tested on: KM12
HOP-92 = tested on: HOP-92
MOLT-4 = tested on: MOLT-4
TK-10 = tested on: TK-10
SN12C = tested on: SN12C
PC-3 = tested on: PC-3
HCT-116 = tested on: HCT-116
K562 = tested on: K562
CAKI-1 = tested on: CAKI-1

c1ccc([I+]c2ccccc2)cc1
GI50 (T47D): > 100 µM (inactive) | GI50 (COLO 205): > 100 µM (inactive) | GI50 (MDA-MB-435): > 100 µM (inactive) | GI50 (DU-145): > 100 µM (inactive) | GI50 (MDA-MB-231): > 100 µM (inactive) | GI50 (SK-MEL-28): > 100 µM (inactive) | GI50 (Hs-578T): > 100 µM (inactive) | GI50 (HCT-15): > 100 µM | GI50 (NCI-H226): > 100 µM (inactive) | GI50 (HCC 2998): > 100 µM (inactive) | GI50 (SF-539): > 100 µM (inactive) | GI50 (786-0): > 100 µM (inactive) | GI50 (Malme-3M): > 100 µM (inactive) | GI50 (CCRF-CEM): > 100 µM (inactive) | GI50 (BT-549): > 100 µM (inactive) | GI50 (OVCAR-3): > 100 µM (inactive) | GI50 (OVCAR-5): > 100 µM (inactive) | GI50 (NCI/ADR-RES): > 100 µM (inactive) | GI50 (LOX IMVI): > 100 µM (inactive) | GI50 (U-251): > 100 µM (inactive) | GI50 (UO-31): > 100 µM (inactive) | GI50 (A549): > 100 µM (inactive) | GI50 (SF-268): > 100 µM (inactive) | GI50 (NCI-H23): > 100 µM (inactive) | GI50 (HL-60): > 100 µM (inactive) | GI50 (SK-MEL-2): > 100 µM (inactive) | GI50 (HOP-62): > 100 µM (inactive) | GI50 (SK-MEL-5): > 100 µM (inactive) | GI50 (SF-295): > 100 µM (inactive) | GI50 (UACC-257): > 100 µM (inactive) | GI50 (A498): > 100 µM (inactive) | GI50 (M14): > 100 µM (inactive) | GI50 (SW-620): > 100 µM (inactive) | GI50 (OVCAR-4): > 100 µM (inactive) | GI50 (EKVX): > 100 µM (inactive) | GI50 (OVCAR-8): > 100 µM (inactive) | GI50 (NCI-H522): > 100 µM (inactive) | GI50 (SK-OV-3): > 100 µM (inactive) | GI50 (ACHN): > 100 µM (inactive) | GI50 (MCF7): > 100 µM (inactive) | GI50 (SNB-19): > 100 µM (inactive) | GI50 (SR): > 100 µM (inactive) | GI50 (MDA-N): > 100 µM (inactive) | GI50 (NCI-H460): > 100 µM (inactive) | GI50 (RXF 393): > 100 µM (inactive) | GI50 (IGROV-1): > 100 µM (inactive) | GI50 (RPMI-8226): > 100 µM (inactive) | GI50 (HT-29): > 100 µM (inactive) | GI50 (KM12): > 100 µM (inactive) | GI50 (HOP-92): 70 µM (inactive) | GI50 (MOLT-4): > 100 µM (inactive) | GI50 (TK-10): > 100 µM (inactive) | GI50 (SN12C): > 100 µM (inactive) | GI50 (PC-3): > 100 µM (inactive) | GI50 (HCT-116): > 100 µM (inactive) | GI50 (K562): > 100 µM (inactive) | GI50 (CAKI-1): > 100 µM (inactive)
